In patent US20150210977A1, “BACTERIUM WITH INCREASED TOLERANCE TO BUTYRIC ACIDS” (LanzaTech New Zealand Limited, priority 2014, published 2015):
In brackets after ≈: the same amount, converted by molar mass.

Key:
Format in all cases: cell-based, Clostridium autoethanogenum
[1] = tested on: C. autoethanogenum LZ1561; test: Selection of a 2-HIBA tolerant strain in continuous fermentation
Protocol: Microorganisms unable to cope with the increasing 2-HIBA concentration were diluted out from the fermentation system, while microorganisms with improved tolerance were retained. Glycerol stocks were collected as the culture resistance improved. CSTRs were inoculated with C. autoethanogenum LZ1561. The reactors were started in batch mode and turned to continuous mode at a dilution rate of 1.5 after approximately 40 hours. Once operationally stable, 2-HIBA (1.1 g/L) was added to the feeding media which was run into the reactor at a dilution rate of 1.5. […] During selection in continuous fermentation, the 2-HIBA concentration tolerated by the C. autoethanogenum LZ1561 culture was reproducibly raised from 1.1 g/L to 6.7 g/L ([…]) by slowly increasing the 2-HIBA concentration over a period of 85 days.

[2] = tested on: C. autoethanogenum; test: Toxicity of 2-HIBA under continuous fermentation (CSTR), gas uptake and metabolite monitoring; conditions: early effect on gas uptake and metabolite production
From the text: CSTRs were inoculated with C. autoethanogenum and brought to a stable optical density (OD600 nm) and dilution rate (D˜1.5). For all fermentations in CSTRs, chemically defined media was used containing no yeast extract. Parameters were monitored on an hourly basis, including metabolites (measured by HPLC) and gas composition in/out (measured by GC). Early effects of 2-HIBA on culture metabolism included a measurable reduction in CO and/or H2 utilization rates, followed by a decline in metabolite production rate. Two CSTRs were run in parallel and received the same inoculum and media in flow rate and composition. The reactors were turned continuous at day 0.9 with media containing 1.5 g/L 2-HIBA at a dilution rate of 1.5. […] The process was then repeated on the same culture in one reactor while the other served as a control. Following introduction of 2-HIBA, the metabolic profile of C. autoethanogenum shifted to favor 2,3-butanediol production, capping ethanol production. Biomass production was reduced under increasing inflow from 2-HIBA and overall metabolic levels drop caused by reduced CO and H2 uptake. By removing 2-HIBA from the inflow media, gas uptake and metabolic production is stabilized. This indicates a reversible reaction to 2-HIBA. The average effect level of 2-HIBA in a continuous CSTR system was calculated as 1.15 g/L.

[3] = tested on: C. autoethanogenum LZ1561; test: Growth of C. autoethanogenum LZ1561 challenged with 2-HIBA in serum bottles; parameters: growth rate μ, Set 1 / growth rate μ, Set 2: unit not given here
Protocol: Clostridium strains were grown at 37° C. in PETC media at pH 5.6 using standard anaerobic techniques (Hungate, Meth Microbiol, 3B: 117-132, 1969; Wolfe, Adv Microb Physiol, 6: 107-146, 1971). Fructose (heterotrophic growth) or 30 psi CO-containing steel mill gas (collected from New Zealand Steel site in Glenbrook, NZ; composition: 44% CO, 32% N2, 22% CO2, 2% H2) in the headspace (autotrophic growth) was used as substrate. For solid media, 1.2% bacto agar (BD, Frankton Lakes, N.J. 07417, USA) was added.
Two sets of serum bottle experiments were performed with media containing 0, 0.5, 1, 1.5, 2, 3, or 4 g/L of 2-HIBA. An average of optical density (OD) data from both sets of growth experiments was plotted. Data points outside the visually observed exponential growth phase were removed and the growth rate (g) for each concentration of 2-HIBA was calculated by fitting an exponential trend line (FIG. 1).
FIGS. 1A-1D show the growth rates of C. autoethanogenum challenged with different concentrations of 2-HIBA. FIG. 1A and FIG. 1B show the respective difference in growth curves for the two sets of growth experiments (n=3). FIG. 1C and FIG. 1D show exponentially fitted lines corresponding to FIG. 1A and FIG. 1B, respectively. […] To extract the growth rate from the trend line equations, the following equation was used OD=OD0Xe^μt, where OD=y, t=x in the trend line equations, providing the calculated growth rates listed below.
The growth rates (μ) were plotted in Prism6 (GraphPad, USA) as μ vs log10 [2-HIBA] to determine the concentration of 2-HIBA at which the growth rate of C. autoethanogenum is 50% (FIG. 2).

**Q.** `CC(C)(O)C(=O)O` [2-HIBA, 2-hydroxyisobutyric acid] was tested. Which increase in tolerance ([1]; 1.1 g/L to 6.7 g/L during selection in continuous fermentation) did it give?
**A.** 600%

**Q.** And the “2-HIBA concentration tolerated by the culture” value ([1]; C. autoethanogenum LZ1561 culture at start of selection)?
**A.** 1.1 g/L

**Q.** What about the “2-HIBA concentration tolerated by the culture” value ([1]; after slowly increasing the 2-HIBA concentration over a period of 85 days) of the same compound?
**A.** 6.7 g/L

**Q.** What about the “average effect level of 2-HIBA in a continuous CSTR system” value [2] of the same compound?
**A.** 1.15 g/L

**Q.** What about the IC50 ([3]; Clostridium autoethanogenum, LZ1561, μ vs log10 [2-HIBA], read-out: IC50 (concentration of 2-HIBA at which the growth rate is 50%)) of the same compound?
**A.** 2200 µg/mL (≈ 21.1 mM)

**Q.** What about the “growth rate μ, Set 1” value ([3]; [2-HIBA] 0.5 g/L) of the same compound?
**A.** 0.096

**Q.** What about the “growth rate μ, Set 2” value ([3]; [2-HIBA] 0.5 g/L) of the same compound?
**A.** 0.104

**Q.** What about the “growth rate μ, Set 1” value ([3]; [2-HIBA] 1 g/L) of the same compound?
**A.** 0.092

**Q.** And the “growth rate μ, Set 2” value ([3]; [2-HIBA] 1 g/L)?
**A.** 0.105

**Q.** And the “growth rate μ, Set 1” value ([3]; [2-HIBA] 1.5 g/L)?
**A.** 0.078

**Q.** And the “growth rate μ, Set 2” value ([3]; [2-HIBA] 1.5 g/L)?
**A.** 0.089

**Q.** And the “growth rate μ, Set 1” value ([3]; [2-HIBA] 2 g/L)?
**A.** 0.082

**Q.** What about the “growth rate μ, Set 2” value ([3]; [2-HIBA] 2 g/L) of the same compound?
**A.** 0.090

**Q.** And the “growth rate μ, Set 1” value ([3]; [2-HIBA] 3 g/L)?
**A.** 0.001

**Q.** What about the “growth rate μ, Set 2” value ([3]; [2-HIBA] 3 g/L) of the same compound?
**A.** 0.004

**Q.** And the “growth rate μ, Set 1” value ([3]; [2-HIBA] 4 g/L)?
**A.** 0.004

**Q.** What about the “growth rate μ, Set 2” value ([3]; [2-HIBA] 4 g/L) of the same compound?
**A.** −0.005

**Q.** What about the effect on growth ([3]; concentration up to 1 g/L of 2-HIBA) of the same compound?
**A.** little or no effect

**Q.** And the effect on growth ([3]; over 2 g/L of 2-HIBA)?
**A.** acute

**Q.** What about the effect on growth ([3]; up to a concentration of 2 g/L of 2-HIBA) of the same compound?
**A.** relatively small effect
